Structures are written as SMILES. Like-named read-outs stand apart in the source and are kept apart here.

Assay [1] deals with LXR α LBD protein (Homo sapiens (Human), UniProt Q13133). The assay can be described thus: LXR α radioligand binding assay (SPA, competition with [3H]TO901317). To be noted: read-out: LXRα Binding Ki.
Assay [2] has as its target Gal4 DNA binding domain fused to the LBD of LXRβ in HEK293 cells (Homo sapiens (Human), UniProt P55055). Nature of the assay: cell-based.
The target of assay [3] is LXR β LBD protein (Homo sapiens (Human), UniProt P55055). The assay can be described thus: biochemical. The format is binding. To be noted: read-out: LXRβ Binding Ki.
Chain of LXR β LBD protein (P55055 222-460 limits assumed): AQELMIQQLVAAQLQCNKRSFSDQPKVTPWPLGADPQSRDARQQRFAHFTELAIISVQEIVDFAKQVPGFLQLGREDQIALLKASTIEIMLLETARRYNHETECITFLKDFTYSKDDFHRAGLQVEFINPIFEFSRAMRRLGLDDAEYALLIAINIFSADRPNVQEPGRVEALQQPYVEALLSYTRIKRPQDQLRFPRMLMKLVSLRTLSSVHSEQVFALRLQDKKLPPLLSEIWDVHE
Assay [4] addresses Gal4 DNA binding domain fused to the LBD of LXRα in HEK293 cells (Homo sapiens (Human), UniProt Q13133). Nature of the assay: LXR luciferase transcriptional reporter gene assay, agonist mode, LXRα. The format is cell-based. To be noted: read-out: Cell LXRα EC50.

Chain of LXR α LBD protein (Q13133 209-447): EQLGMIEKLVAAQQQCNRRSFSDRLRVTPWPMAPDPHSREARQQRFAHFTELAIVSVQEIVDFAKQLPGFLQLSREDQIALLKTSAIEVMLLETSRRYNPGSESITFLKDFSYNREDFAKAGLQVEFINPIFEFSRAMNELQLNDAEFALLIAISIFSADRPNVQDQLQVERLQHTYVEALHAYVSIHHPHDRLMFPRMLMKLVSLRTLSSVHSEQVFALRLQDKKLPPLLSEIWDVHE
Chain of Gal4 DNA binding domain fused to the LBD of LXRα in HEK293 cells (Q13133 209-447): as above
Chain of Gal4 DNA binding domain fused to the LBD of LXRβ in HEK293 cells (P55055 222-460 limits assumed): as the sequence (P55055 222-460 limits assumed) above

In the case of `COCCCN(C)C(=O)c1cnc(N2CCN(c3ccc(F)c(S(C)(=O)=O)c3)C[C@H]2C(C)C)nc1C(F)(F)F` [17-13, (R)-2-(4-(4-fluoro-3-(methylsulfonyl)phenyl)-2-isopropylpiperazin-1-yl)-N-(3-methoxypropyl)-N-methyl-4-(trifluoromethyl)pyrimidine-5-carboxamide], the Ki in assay [1] stood at 2.88 µM; in assay [3], 0.253 µM. The EC50 in assay [2] and in assay [4] (agonist mode) was greater than 20 µM throughout.
`CCN(CCOC)C(=O)c1cnc(N2CCN(c3ccc(F)c(S(C)(=O)=O)c3)C[C@H]2C(C)C)nc1C(F)(F)F` [17-14, (R)-N-ethyl-2-(4-(4-fluoro-3-(methylsulfonyl)phenyl)-2-isopropylpiperazin-1-yl)-N-(2-methoxyethyl)-4-(trifluoromethyl)pyrimidine-5-carboxamide]: the Ki in assay [1] was found to be 0.915 µM; in assay [3] it was 0.113 µM. For the same compound, the EC50 in assay [2] and in assay [4] (agonist mode) was greater than 20 µM in each case.
As for `CCN(CCCO)C(=O)c1cnc(N2CCN(c3ccc(F)c(S(C)(=O)=O)c3)C[C@H]2C(C)C)nc1C(F)(F)F` [17-15, (R)-N-ethyl-2-(4-(4-fluoro-3-(methylsulfonyl)phenyl)-2-isopropylpiperazin-1-yl)-N-(3-hydroxypropyl)-4-(trifluoromethyl)pyrimidine-5-carboxamide], the Ki is greater than 3.33 µM in assay [1] and 0.36 µM in assay [3]. For the same compound, the EC50 in assay [2] and in assay [4] was greater than 20 µM each time.
Take `COC(=O)NCCCN(C)C(=O)c1cnc(N2CCN(c3ccc(F)c(S(C)(=O)=O)c3)C[C@H]2C(C)C)nc1C(F)(F)F` [17-19, methyl (R)-(3-(2-(4-(4-fluoro-3-(methylsulfonyl)phenyl)-2-isopropylpiperazin-1-yl)-N-methyl-4-(trifluoromethyl)pyrimidine-5-carboxamido)propyl)carbamate]: the inhibitory constant (Ki) is greater than 3.33 µM in assay [1] and 0.584 µM in assay [3]. In addition, the EC50 in assay [2] and in assay [4] (agonist mode) was greater than 20 µM throughout.
`CC(C)[C@@H]1CN(c2ccc(F)c(S(C)(=O)=O)c2)CCN1c1ncc(C(=O)N(C)CCCNC(=O)OC(C)(C)C)c(C(F)(F)F)n1` [17-23, tert-butyl (R)-(3-(2-(4-(4-fluoro-3-(methylsulfonyl)phenyl)-2-isopropylpiperazin-1-yl)-N-methyl-4-(trifluoromethyl)pyrimidine-5-carboxamido)propyl)carbamate]: the Ki in assay [1] amounted to 1.42 µM; in assay [3] it was 0.257 µM. For the same compound, the EC50 in assay [2] and in assay [4] (agonist mode) was greater than 20 µM each time.
Consider `Cc1nc(N2CCN(c3ccc(F)c(S(C)(=O)=O)c3)C[C@H]2C(C)C)ncc1C(N)=O` [17-24, (R)-2-(4-(4-fluoro-3-(methylsulfonyl)phenyl)-2-isopropylpiperazin-1-yl)-4-methylpyrimidine-5-carboxamide], for which the figures for the Ki in assay [1] and in assay [3] were greater than 3.33 µM and 0.611 µM, respectively. Besides, the EC50 in assay [2] and in assay [4] (agonist mode) was greater than 20 µM each time.
As for `COCCN(C)C(=O)c1cnc(N2CCN(c3ccc(F)c(S(C)(=O)=O)c3)C[C@H]2C(C)C)nc1C` [17-26, (R)-2-(4-(4-fluoro-3-(methylsulfonyl)phenyl)-2-isopropylpiperazin-1-yl)-N-(2-methoxyethyl)-N,4-dimethylpyrimidine-5-carboxamide], the Ki in assay [1] was greater than 3.33 µM; in assay [3], 2.33 µM. In addition, the EC50 in assay [2] and in assay [4] (agonist mode) was greater than 20 µM each time.
With `Cc1nc(N2CCN(c3ccc(F)c(S(C)(=O)=O)c3)C[C@H]2C(C)C)ncc1C(=O)N(C)CCCO` [17-27, (R)-2-(4-(4-fluoro-3-(methylsulfonyl)phenyl)-2-isopropylpiperazin-1-yl)-N-(3-hydroxypropyl)-N,4-dimethylpyrimidine-5-carboxamide], the inhibitory constant (Ki) in assay [1] was greater than 3.33 µM; in assay [3], greater than 2.5 µM. Besides, the EC50 in assay [2] and in assay [4] was greater than 20 µM each time.

Values taken from patent US10144715B2, “Piperazine derivatives as liver X receptor modulators” (priority 2014, dated 2018).
